Test results: US9497970B2, “Pesticide compounds” (priority 2013, dated 2016)

Columns and labels:
Format in all cases: in vivo
[1] = test system: Diamond Back Moth (Plutella xylostella); experiment: B.1 Diamond Back Moth (Plutella xylostella), cabbage leaf dip; conditions: foliar, 500 ppm, 3rd instar larvae on dipped cabbage leaves, 72 hours after treatment, in comparison with untreated controls, read-out: mortality
Outline: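 Cabbage leaves dipped in compound in 1:1 water:acetone with 0.01% Kinetic HV surfactant, air-dried, then infested with ten 3rd-instar larvae on moist filter paper. Mortality scored at 72 h after treatment; feeding damage rated on a 0-100% scale.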

[2] = test system: Boll Weevil (Anthonomus grandis); experiment: B.3 Boll Weevil (Anthonomus grandis), microtiter plate insect diet; conditions: 120 h, 800 ppm, sprayed onto insect diet, 5 days, in comparison with untreated controls, read-out: mortality (egg and larval)
Outline: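 Compounds in 25% DMSO/water sprayed at several concentrations onto insect diet in microtiter wells holding 5–10 A. grandis eggs, two replicates. Plates kept 5 days at about 25±1 °C and 75±5% RH. Egg and larval mortality scored visually.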

[3] = test system: Silverleaf Whitefly (Bemisia argentifoli); experiment: B.5 Silverleaf Whitefly (Bemisia argentifoli), sprayed cotton plants; conditions: 72 h, whitefly adults on sprayed cotton plants, 3 days after treatment, in comparison with untreated controls
[4] = test system: Mediterranean Fruitfly (Ceratitis capitata); experiment: B.6 Mediterranean Fruitfly (Ceratitis capitata), microtiter plate insect diet; conditions: 120 h, 800 ppm, sprayed onto insect diet, 5 days, in comparison with untreated controls, read-out: mortality (egg and larval)
Outline: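 Insect diet with 50-80 C. capitata eggs sprayed with compounds formulated in 75% water/25% DMSO, at different concentrations, two replications. Incubation at about 28±1° C and 80±5% relative humidity for 5 days, then egg and larval mortality assessed visually.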

[5] = test system: Tobacco Budworm (Heliothis virescens); experiment: B.7 Tobacco Budworm (Heliothis virescens) I, microtiter plate insect diet; conditions: 120 h, 800 ppm, sprayed onto insect diet, 5 days, in comparison with untreated controls, read-out: mortality (egg and larval)
Outline: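 96-well plates with insect diet and 15-25 H. virescens eggs; compounds in 75% water/25% DMSO sprayed onto diet at several concentrations, two replicates. Plates held at about 28±1° C. and 80±5% relative humidity for 5 days, then egg and larval mortality scored visually.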

[6] = test system: Vetch Aphid (Megoura viciae); experiment: B.8 Vetch Aphid (Megoura viciae), broad bean leaf disks; conditions: foliar, 120 h, 2500 ppm, adult aphids on sprayed leaf disks, 5 days, in comparison with untreated controls, read-out: mortality
Experimental: B.8 Vetch Aphid (Megoura viciae)
For evaluating control of vetch aphid (Megoura viciae) through contact or systemic means the test unit consisted of 24-well-microtiter plates containing broad bean leaf disks.
The compounds were formulated using a solution containing 75% v/v water and 25% v/v DMSO. Different concentrations of formulated compounds were sprayed onto the leaf disks at 2.5 μl, using a custom built micro atomizer, at two replications.
After application, the leaf disks were air-dried and 5-8 adult aphids placed on the leaf disks inside the microtiter plate wells. The aphids were then allowed to suck on the treated leaf disks and incubated at about 23±1° C. and about 50±5% relative humidity for 5 days. Aphid mortality and fecundity was then visually assessed.

[7] = test system: Southern Armyworm (Spodoptera eridania), 2nd Instar Larvae; experiment: B.10 Southern Armyworm (Spodoptera eridania), 2nd Instar Larvae, sprayed lima bean plants; conditions: 96 h, 300 ppm, larvae on sprayed lima bean plants, 4 days after treatment, in comparison with untreated controls, read-out: mortality
Outline: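 Lima bean plants at 1st true leaf stage sprayed electrostatically with compound in 50% acetone:50% water plus 0.01% nonionic surfactant, then infested with about 10 to 11 2nd instar larvae. Mortality and reduced feeding assessed 4 days after treatment at about 25° C versus untreated plants.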

[8] = test system: Yellow Fever Mosquito (Aedes aegypti); experiment: whole plant or invertebrate; conditions: 48 h, freshly hatched larvae in tap water, 2 days, in comparison with untreated controls, read-out: mortality (larval)
Outline: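 Freshly hatched A. aegypti larvae, 5–15 per well, were held in 200 μl tap water. Compounds formulated in 75:25 water:DMSO were sprayed at various concentrations, 2.5 μl per well by micro-atomizer, in two replicates.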

[9] = test system: Orchid thrips (dichromothrips corbetti); experiment: B.12 Orchid thrips (dichromothrips corbetti), floral-immersion technique; conditions: adult thrips on dipped orchid petals, 72 hours after treatment, in comparison with untreated controls
Outline: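 Whole orchid flower petals were dipped in compound in 1:1 acetone:water with 0.01% v/v Kinetic HV, dried, and enclosed with about 20 adult thrips. They were held under continuous light at about 28° C. Live thrips were counted and percent mortality recorded at 72 hours.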

[10] = test system: Orchid thrips (dichromothrips corbetti); experiment: B.2 Orchid thrips (dichromothrips corbetti), floral-immersion technique; conditions: adult thrips on dipped orchid petals, 72 hours after treatment, in comparison with untreated controls
Experimental: B.2 Orchid thrips (dichromothrips corbetti)
Dichromothrips corbetti adults used for bioassay were obtained from a colony maintained continuously under laboratory conditions. For testing purposes, the test compound is diluted in a 1:1 mixture of acetone:water (vol:vol), plus Kinetic HV at a rate of 0.01% v/v.
Thrips potency of each compound was evaluated by using a floral-immersion technique. All petals of individual, intact orchid flowers were dipped into treatment solution and allowed to dry in Petri dishes. Treated petals were placed into individual resealable plastic along with about 20 adult thrips. All test arenas were held under continuous light and a temperature of about 28° C. for duration of the assay. After 3 days, the numbers of live thrips were counted on each petal. The percent mortality was recorded 72 hours after treatment.

[11] = test system: Green Peach Aphid (Myzus persicae); experiment: B.9 Green Peach Aphid (Myzus persicae), sprayed bell pepper plants; conditions: 120 h, infested bell pepper plants sprayed, after 5 days, in comparison with untreated controls
Outline: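 Bell pepper plants at first true-leaf stage, infested with 30-50 aphids each, were sprayed electrostatically with compound in 50% acetone:water plus 0.01% nonionic surfactant. Held at about 25° C, 24-hr light, 20-40% RH. Mortality versus untreated controls scored after 5 days.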

[12] = test system: Cowpea Aphid (aphis craccivora); experiment: B.4 Cowpea Aphid (aphis craccivora), sprayed potted cowpea plants; conditions: after 72 hours, in comparison with untreated controls
Experimental: B.4 Cowpea Aphid (aphis craccivora)
The active compound is dissolved at the desired concentration in a mixture of 1:1 (vol:vol) distilled water:acetone. Surfactant (Kinetic HV) is added at a rate of 0.01% (vol/vol). The test solution is prepared at the day of use.
Potted cowpea plants were colonized with approximately 50-100 aphids of various stages by manually transferring a leaf tissue cut from infested plant 24 hours before application. Plants were sprayed after the pest population has been recorded. Treated plants are maintained on light carts at about 28° C. Percent mortality was assessed after 72 hours.

CC(C)c1ccccc1N1CCSC1=N/N=C/c1ccc2c(ccc3c2ncn3-c2ccc(OC(F)(F)F)cc2)c1 (stereo in doubt) [C-53, (E)-3-(2-isopropylphenyl)-N-[(E)-[3-[4-(trifluoromethoxy)phenyl]benzo[e]benzimidazol-7-yl]methyleneamino] thiazolidin-2-imine]
≥ 75%: mortality at 500 ppm [1] | mortality at 800 ppm [2] | mortality at 300 ppm [3] | mortality at 800 ppm [4] | mortality at 800 ppm [5] | mortality at 2500 ppm [6] | mortality at 300 ppm [7] | mortality at 800 ppm [8] | mortality at 500 ppm [9]

Cc1cccc(C)c1NC(=S)N/N=C/c1ccc2c(ccc3c2ncn3-c2ccc(OC(F)(F)F)cc2)c1 [C-1, 1-(2,6-dimethylphenyl)-3-[(E)-[3-[4-(trifluoromethoxy)phenyl]benzo[e]benzimidazol-7-yl]methyleneamino]thiourea]
≥ 75%: mortality at 500 ppm [1] | mortality at 300 ppm [10] | mortality at 800 ppm [2] | mortality at 800 ppm [4] | mortality at 800 ppm [5] | mortality at 800 ppm [11] | mortality at 300 ppm [7] | mortality at 800 ppm [8] | mortality at 500 ppm [9]

Cc1ccccc1NC(=S)N/N=C/c1ccc2c(c1)CCc1c-2nnn1-c1ccc(OC(F)(F)F)cc1 [C-34, 1-(o-tolyl)-3-[[3-[4-(trifluoromethoxy)phenyl]-5,8-dihydro-4H-benzo[e]benzotriazol-7-ylidene]methylimino] thiourea]
≥ 75%: mortality at 500 ppm [12] | mortality at 800 ppm [4]

Cc1cccc(C)c1NC(=S)N/N=C/c1ccc2c(ccc3c2ncn3-c2ccc(C(F)(F)F)cc2)c1 [C-86, 1-(2,6-dimethylphenyl)-3-[(E)-[3-[4-(trifluoromethyl)phenyl]benzo[e]benzimidazol-7-yl]methyleneamino]thiourea]
≥ 75%: mortality at 500 ppm [1] | mortality at 800 ppm [2] | mortality at 800 ppm [4] | mortality at 800 ppm [5] | mortality at 2500 ppm [6] | mortality at 800 ppm [11] | mortality at 300 ppm [7] | mortality at 800 ppm [8] | mortality at 500 ppm [9]

Cc1ccccc1NC(=S)N(C)/N=C/c1ccc2c(ccc3c2ncn3-c2ccc(OC(F)(F)F)cc2)c1 [C-87, 1-methyl-3-(o-tolyl)-1-[(E)-[3-[4-(trifluoromethoxy)phenyl]benzo[e]benzimidazol-7-yl]methyleneamino]thiourea]
≥ 75%: mortality at 500 ppm [1] | mortality at 800 ppm [2] | mortality at 500 ppm [12] | mortality at 800 ppm [4] | mortality at 800 ppm [8]
